# Target: T1, Muscarinic acetylcholine receptor M4 (Homo sapiens, UniProt P08173)
# T1 sequence (P08173 whole entry): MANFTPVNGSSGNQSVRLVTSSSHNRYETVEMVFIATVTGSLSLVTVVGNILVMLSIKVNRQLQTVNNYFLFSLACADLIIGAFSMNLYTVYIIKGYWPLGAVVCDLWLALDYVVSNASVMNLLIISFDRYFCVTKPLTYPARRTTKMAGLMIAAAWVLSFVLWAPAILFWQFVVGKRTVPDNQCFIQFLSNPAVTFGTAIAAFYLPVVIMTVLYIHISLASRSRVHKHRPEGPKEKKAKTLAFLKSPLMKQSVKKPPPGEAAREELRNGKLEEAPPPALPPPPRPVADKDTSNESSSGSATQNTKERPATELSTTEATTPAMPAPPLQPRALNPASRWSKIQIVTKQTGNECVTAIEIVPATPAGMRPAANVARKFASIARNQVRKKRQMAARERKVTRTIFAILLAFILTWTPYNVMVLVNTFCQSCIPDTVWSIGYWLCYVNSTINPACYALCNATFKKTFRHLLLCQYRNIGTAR
# Test: Antagonist activity at recombinant human M4 receptor expressed in CHO cells co-expressing Gqi5 by calcium mobilization assay
structure (smiles),measurement,value
O=C(C1CCN(c2cc(Oc3ccc(Cl)cc3F)ncn2)CC1)N1CCc2ccccc2C1,IC50,0.117 µM
